Like-named read-outs stand apart in the source and are kept apart here. Ends that are not written are not given here. Peptide text beside a SMILES is read from it.
Tests used:
[1] = target: Recombinant human EGFR protein (Active) (ab155639) (Homo sapiens, UniProt P00533); assay: Microscale thermophoresis (MST) binding to EGFR
Description: It is known from the literature data that the dissociation constant of this binding interaction varies from 0.2 to 8 nM [102]. […] It is recommended that the concentration of the ligand should be at least 20× higher than the expected dissociation constant. In the experiments, the final labeled EGFR concentration was 25 nM.
MST analysis was performed using a Monolith NT.115 device, excitation color—Nano-RED, excitation power—100%, medium MST power.
Recombinant human EGFR protein (Active) (ab155639) was reconstituted with 500 μL of 0.45 μm filtered distilled water. Then, 100 nM solution of EGFR was prepared by mixing 3.6 μL of protein with 96.4 μL PBS-T (PBS with 0.05% Tween20). RED-tris-NTA 2nd Generation (5 μM) was obtained by dissolving […] of dye in 50 μL PBS-T. A solution of dye in PBS-T (50 nM) was prepared by mixing 1 μL of dye with 99 μL PBS-T. A solution of the protein (95 μL) was mixed with the solution of dye (95 μL) and incubated at room temperature for 30 min. The sample was then centrifuged for 10 min at 4 °C. The final labeled protein concentration in the assay was 25 nM.
Then, 20 μL of the ligand was transferred to PCR tube 1. Subsequently, 10 μL of the solution was transferred to PCR tube 2 and mixed by pipetting; 10 μL of the solution from PCR tube 2 was transferred to PCR tube 3 and mixed by pipetting; this procedure was repeated for PCR tubes 4–16. From PCR tube 16, 10 μL of the solution was discarded. Finally, 10 μL of labeled EGFR was added to each PCR tube and mixed by pipetting. The samples were incubated for 30 min at room temperature prior to MST assays. Analyses were performed using NanoTemper Technologies (München, Germany).

[2] = system: Primary Dermal Fibroblasts; assay: Live/dead test (proliferation and cytotoxicity); type: cell-based; conditions: 100 ng/mL; for percentage of live cells (in words) / live cells: live/dead assay
Description: In the next stage of our research, the scope of biological tests was expanded to assess the safety of the found EGF fragments. Fragments 10–22, 13–19, 22–28, 26–34, 10–15, and 10–15a were selected for further study in a live/dead assay (Figure 7, Figure 8 and Figure 9).
Primary Dermal Fibroblast (ATCC, Manassas, USA) was grown in Fibroblast Basal Media supplemented with Fibroblast Growth Kit components (ATCC, Manassas, VA, USA). The cells were cultured under standard conditions (37 °C, humidified atmosphere of 5% CO2 in air). The medium was replaced every 2–3 days (75% confluence). Cells between the third and fifth passages were used in the experiment.
To evaluate proliferation and cytotoxicity, a “live/dead” test (Viability/Cytotoxicity Kit, Molecular Probes) was used. Cells were seeded at 6 × 10^4 cells/mL/well/sample in 2 mL of Fibroblast Basal Media supplemented with Fibroblast Growth Kit components (ATCC, Manassas, VA, USA). After 24 h, the medium was completely replaced. Cells in the positive control and negative control were cultured in medium containing FGF. In the remaining samples, media without FGF and with the addition of heat-inactivated serum were used. […] During the experiment, half of the medium was changed every 2 days. […] After that time, a mixture of two fluorescent dyes was used: Calcein-AM for the staining of living cells and ethidium bromide for the labeling of dead cells.
The samples were examined using an Olympus GX 71 fluorescence microscope equipped with a digital camera (DP70) (Olympus, Evident, Tokyo, Japan). The results were submitted to one-way ANOVA analysis.

[3] = system: anti-EGF rabbit polyclonal antibodies (Abcam 9695); assay: Dot blot of cellulose-immobilized EGF decapeptides with anti-EGF polyclonal antibodies; type: binding; conditions: for Intensity (ability to interact with polyclonal antibodies) / interaction with polyclonal anti-EGF antibodies (in words): peptide on cellulose matrix; for Intensity (ability to interact with polyclonal antibodies): antibody 1:1000, 1 h room temperature; for Intensity (Staining Value): scanned spot, 256 gray scale (ImageJ);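 as to Intensity (Staining Value): higher gray value means stronger antibody binding with above 120 very strong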
Description: Dot blot reactions were performed using primary anti-EGF rabbit polyclonal antibodies (Abcam 9695) (Cambridge, UK) and secondary goat anti-rabbit antibodies conjugated with HRP (Abcam 205718). The procedure for using the dot blot method to analyze peptides immobilized on a cellulose matrix through a triazine linker was optimized in a previous study by the authors and ensures the elimination of non-specific impacts.
The solution was then removed, and the membranes were treated overnight at room temperature with blocking buffer (3% BSA in PBS, 40 mL, pH 7.4). The cellulose sheets were then washed with PBS buffer (40 mL, 5 min, pH 7.4). […] The membranes were then washed with Tween-80 solution in PBS (0.4%, 40 mL, 2 × 5 min) and PBS (40 mL, 5 min). Goat Anti-Rabbit IgG antibodies were conjugated with HRP (Abcam 205718, 20 μL) diluted 1:1000 in 1% BSA in PBS (20 mL, pH 7.4) and then incubated with cellulose sheets for 30 min at room temperature. The membranes were then washed with Tween-80 solution in PBS (0.4%, 40 mL, 2 × 5 min) and PBS (40 mL, 5 min). Visualization of the reactions was performed using 4-chloro-1-naphtol (Sigma–Aldrich). The cellulose sheets were placed into 0.15 mg/mL solution of 4-chloro-1-naphtol in MeOH:PBS (1:5, 15 mL) with the addition of 7.5 μL of H2O2; reaction time was 30 min. The membranes were washed with distilled water, air-dried, and scanned. In places where immunological complexes developed, blue precipitate was observed. The applied dot blot test procedure ensures the elimination of non-specific interactions. Additionally, using the same SPOT synthesis procedure, a library of type IV collagen fragments was obtained. […] The gray levels of the immunological reactions were determined using ImageJ Version 1.53n7 (https://imagej.nih.gov/ij/index.html, accessed on 17 October 2021) computer imaging software.

[4] = target: T1, Recombinant human EGFR protein (Active) (ab155639) (human, UniProt P00533 25-645, labelled with RED-tris-NTA 2nd Generation dye); assay: MST; RED-tris-NTA-labelled EGFR 25 nM, ligand in a 16-step 1:1 dilution series in PBS-T, 30 min at room temperature; assay concentration of the ligand 10 mM; conditions: both partners purified
T1 construct: epidermal growth factor receptor (EGFR, ErbB-1), human, recombinant; also called EGF receptor; ErbB-1; source: bought: Abcam (ab155639), recombinant

[5] = target: T1, Recombinant human EGFR protein (Active) …; assay: MST; RED-tris-NTA-labelled EGFR 25 nM, ligand in a 16-step 1:1 dilution series in PBS-T, 30 min at room temperature; assay concentration of the ligand 500 μM; conditions: both partners purified

## CSCC[C@H](NC(=O)[C@H](CS)NC(=O)[C@@H](NC(=O)CNC(=O)[C@H](CC(=O)O)NC(=O)[C@H](Cc1c[nH]cn1)NC(=O)[C@H](CC(C)C)NC(=O)[C@H](CS)NC(=O)[C@H](Cc1ccc(O)cc1)NC(=O)CNC(=O)[C@H](CC(=O)O)NC(=O)[C@@H](N)Cc1c[nH]cn1)C(C)C)C(=O)N[C@@H](Cc1ccc(O)cc1)C(=O)O [10–22] (H-HDGYCLHDGVCMY-OH; C-terminus assumed)
[1]; MST, range over the tested fragment concentrations, labeled EGFR 25 nM
  dissociation constants (range over the assay concentrations): 0.07 to 416 µM
[2]; after 1 day
  percentage of live cells (in words): slightly less survivability
[2]; after 7 days
  live cells: 99.25%
[2]; after one day
  live cells: 97.13%

## CC[C@H](C)[C@H](N)C(=O)N[C@@H](CCC(=O)O)C(=O)N[C@@H](C)C(=O)N[C@@H](CC(C)C)C(=O)O [23–26] (H-IEAL-OH)
[1]; MST, assay concentration 10 mM, labeled EGFR 25 nM, read-out: Kd
  Kd: 5090 µM

## CC(C)C[C@H](N)C(=O)N[C@@H](CC(=O)O)C(=O)N[C@@H](CCCCN)C(=O)N[C@@H](Cc1ccc(O)cc1)C(=O)N[C@@H](C)C(=O)N[C@@H](CS)C(=O)N[C@@H](CC(N)=O)C(=O)N[C@@H](CS)C(=O)N[C@H](C(=O)O)C(C)C [26–34] (H-LDKYACNCV-OH)
[2]; after 1 day of incubation
  number of cells (fibroblast proliferation, in words): more cells than in the medium with EGF
[2]; after 1 day
  percentage of live cells (in words): one of the highest percentages of live cells
[2]; after 7 days
  percentage of live cells (in words): one of the highest percentages of live cells

## EGF: native EGF (ab9697), recombinant human EGF protein; 53-amino acid polypeptide
[2]; after 7 days of incubation
  number of cells (fibroblast proliferation, in words): induced cell growth

## H-YCLHDGV-OH [13–19]
[2]; after 1 day
  percentage of live cells (in words): slightly less survivability
[2]; after 7 days
  live cells: 99.30%
[2]; after one day
  live cells: 97.84%

## H-^37YIGERCQYRD^46-matrix [B17]
[3]
  Intensity (ability to interact with polyclonal antibodies): + (strong (+), for which the staining intensity value was in the range of 120–90)
  Intensity (Staining Value): 106.2

## H-^38IGERCQYRDL^47-matrix [B18]
[3]
  Intensity (ability to interact with polyclonal antibodies): +/− (moderately strong (+/−), for which the color intensity value was in the range of 90–45)
  Intensity (Staining Value): 76.1

## H-^39GERCQYRDLK^48-matrix [B19]
[3]
  interaction with polyclonal anti-EGF antibodies (in words): do not exhibit the ability to interact with antibodies
  Intensity (ability to interact with polyclonal antibodies): − ((−), where the color intensity value was <45)
  Intensity (Staining Value): 28.9

## H-^40ERCQYRDLKW^49-matrix [B20]
[3]
  interaction with polyclonal anti-EGF antibodies (in words): do not exhibit the ability to interact with antibodies

## H-^41RCQYRDLKWW^50-matrix [C1]
[3]
  interaction with polyclonal anti-EGF antibodies (in words): moderate binding to antibodies
  Intensity (ability to interact with polyclonal antibodies): + (strong (+), for which the staining intensity value was in the range of 120–90)
  Intensity (Staining Value): 91.5

## H-^42CQYRDLKWWE^51-matrix [C2]
[3]
  interaction with polyclonal anti-EGF antibodies (in words): moderate binding to antibodies
  Intensity (ability to interact with polyclonal antibodies): + (strong (+), for which the staining intensity value was in the range of 120–90)
  Intensity (Staining Value): 91.4

## H-^43QYRDLKWWEL^52-matrix [C3]
[3]
  interaction with polyclonal anti-EGF antibodies (in words): show interactions with polyclonal anti-EGF antibodies
  Intensity (ability to interact with polyclonal antibodies): + (strong (+), for which the staining intensity value was in the range of 120–90)
  Intensity (Staining Value): 99.4

## H-^44YRDLKWWELR^53-matrix [C4]
[3]
  interaction with polyclonal anti-EGF antibodies (in words): show interactions with polyclonal anti-EGF antibodies
  Intensity (ability to interact with polyclonal antibodies): + (strong (+), for which the staining intensity value was in the range of 120–90)
  Intensity (Staining Value): 104.2

## HDGYCL [10–15]
[2]; after 7 days
  live cells: 99.52%
[2]; after one day
  live cells: 98.73%

## IGERCQ [38–43]
[1]; MST, range over the tested fragment concentrations, labeled EGFR 25 nM, read-out: Kd (range over the assay concentrations)
  Kd: 0.108 to 0.709 µM

## QYRDL [43–47]
[1]
  Kd: 4.93 to 125 µM
[2]; after 7 days
  percentage of live cells (in words): highest live percentage of cells for all tested peptides

## VVGYIGERCQYRDL [34–47]
[1]; MST, range over the tested fragment concentrations, labeled EGFR 25 nM, read-out: dissociation constants (range over the assay concentrations)
  Kd: 0.5 to 5.92 µM

## YIEALDK [22–28]
[2]; after 1 day
  percentage of live cells (in words): slightly less survivability

B1: EGF fragment 43–47 (QYRDL) (peptide)
peptide: QYRDL
notes: EGF, human, residues 43-47; numbers count on: the mature protein; source: synthetic peptide (SPPS, Fmoc; crude, without preparative HPLC)
[4]
  Kd: 125 µM
[5]
  Kd: 4.93 µM
